Assay results as given in PMC9721025, “Pharmacokinetic study of the main components of Tanreqing capsules and Tanreqing injections in beagles by liquid chromatography–tandem mass spectrometry” (Chinese Medicine, 2022).

Key:
[1] = Stability of analytes in dog plasma (QC samples); format: in vitro ADME
Experimental: The stock solutions of all analytes were further mixed and diluted with methanol/water (10:90, v/v) solution to prepare the working solutions. […] The QC samples were stored in a refrigerator at – 80 °C until retrieval (see Additional file 1). The stability, which includes short-term stability (6 h at room temperature), long-term stability (− 80 °C for 30 days in the refrigerator), and freeze–thaw stability (three cycles from − 80 °C to room temperature), were assessed using QC samples at three concentration levels in three replicates. […] Similarly, there were no obvious effects on the analysis results of the samples with respect to short-term stability or long-term storage.

[2] = Pharmacokinetics in beagles, single-dose regimen of TRQI (i.v.) or TRQC (oral), plasma LC-MS/MS; format: in vivo, beagle; conditions: beagle, dog, plasma; for AUC(0-t): read-out: AUC0–24 h; for Cmax / Tmax / half-life: mean of six beagles
Experimental: (§1) 100 μL plasma sample was drawn and transferred to 1.5 mL centrifuge tube prior to 300 μL protein precipitant (3:1 [v/v] methanol/acetonitrile, containing 0.1% formic acid and 100 ng/mL IS) was added, and then the sample was vortex-mixed for 3 min. The mixture was centrifuged at 20,000 ×g for 10 min, and 100 μL supernatant was transferred to the injection vial and analyzed directly by LC–MS/MS.
(§2) This study was carried out in six beagles (three males and three females, 9.0–12.0 kg each), that were purchased from Junda Pet Hospital (Shanghai, China). This experimental protocol was approved by the Experimental Animal Ethics Committee of the Naval Military Medical University (Shanghai, China).
The six healthy beagles were divided into two groups: beagles 1–3 were all male and were assigned to the first group, and beagles 4–6 were all females and assigned to the second group. The two-cycle, crossover study was designed with a 7-day wash out period. For the single-administration process, the dogs in the first group were injected intravenously with 0.5 mL/kg TRQI (one-third of the normal daily dose), and blood samples were collected at 0, 5, 10, 15, 20, 30, and 45 min and then at 1, 2, 4, 6, 8, 12, and 24 h (a total of 14 time points) after injection. For each blood sample, 1 mL of blood was collected from the forelimb vein in heparin-treated tubes. The dogs in the second group were orally administrated 0.09 g/kg TRQC (one-third of the normal daily dose, and blood samples were collected in the same manner at 0, 10, 20, and 40 min and then at 1, 1.5, 2, 2.5, 3, 4, 6, 8, 12, and 24 h (a total of 14 time points). All blood samples were centrifuged at 4000 × g for 5 min, and each supernatant was collected and aliquoted. After a 7-day wash out period, the dogs in each group were administrated the other Tanreqing formulation in a crossover design, and blood samples were collected and processed in the same way.
(§3) All data obtained were analyzed using Drug and Statistics (DAS) 2.0 software (Chinese Society of Pharmacology), and a non-compartment analysis was used to calculate plasma pharmacokinetic parameters. The principal components of TRQI and TRQC were compared with an analysis of variance (ANOVA) and/or a two-tailed student-t test.

[3] = Pharmacokinetics in beagles, multiple-dose regimen (once per day for 7 days) of TRQI or TRQC, plasma LC-MS/MS; format: in vivo; conditions: beagle, dog; for Cmax at 7 days / Tmax at 7 days / half-life at 7 days: mean
Experimental: as §1, §2
After the end of the single-dose experiment, the dogs in group one were given 0.5 mL/kg injection of TRQI once per day for 7 days following the wash out period, and the dogs in group two were given 0.09 g/kg TRQC once per day for 7 days. After the seventh administration, blood samples were collected at 0, 10, 20, and 40 min and then at 1, 1.5, 2, 2.5, 3, 4, 6, 8, 12, and 24 h (a total of 14 time points) and were processed as described in “Single-dose regimen” section. The resulting plasma samples were used to determine the steady-state plasma concentration of TRQI and TRQC. A crossover study was again carried out in both groups, as described in “Single-dose regimen” section, after a 7-day washing period.
as §3

[4] = n = 3, high QC: nominal 200 ng/mL baicalin, 1000 ursodeoxycholic acid, 100 chenodeoxycholic acid and chlorogenic acid
[5] = n = 3, low QC: nominal 4 ng/mL baicalin, 20 ursodeoxycholic acid, 2 chenodeoxycholic acid and chlorogenic acid
[6] = n = 3, middle QC: nominal 20 ng/mL baicalin, 100 ursodeoxycholic acid, 10 chenodeoxycholic acid and chlorogenic acid
[7] = both sexes, iv, single i.v. dose of TRQI 0.5 mL/kg
[8] = both sexes, single oral dose of TRQC 0.09 g/kg
[9] = both sexes, iv, TRQI 0.5 mL/kg once per day for 7 days
[10] = both sexes, po, TRQC 0.09 g/kg once per day for 7 days

O=C(/C=C/c1ccc(O)c(O)c1)O[C@@H]1C[C@](O)(C(=O)O)C[C@@H](O)[C@H]1O [Chlorogenic acid, chlorogenic acid]
Freeze-thaw stability (3 cycles) Mean ± S.D. concentration [1, 4]: 95.65 ± 3.72 ng/mL
Long-term stability (30 days at – 80 °C) Mean ± S.D. concentration [1, 4]: 87.31 ± 4.62 ng/mL
Short-term stability (6 h at room temperature) Mean ± S.D concentration [1, 4]: 88.28 ± 2.72 ng/mL
Freeze-thaw stability (3 cycles) Mean ± S.D. concentration [1, 5]: 2.07 ± 0.17 ng/mL
Long-term stability (30 days at – 80 °C) Mean ± S.D. concentration [1, 5]: 1.73 ± 0.05 ng/mL
Short-term stability (6 h at room temperature) Mean ± S.D concentration [1, 5]: 1.98 ± 0.16 ng/mL
Freeze-thaw stability (3 cycles) Mean ± S.D. concentration [1, 6]: 10.03 ± 0.84 ng/mL
Long-term stability (30 days at – 80 °C) Mean ± S.D. concentration [1, 6]: 8.95 ± 0.42 ng/mL
Short-term stability (6 h at room temperature) Mean ± S.D concentration [1, 6]: 8.97 ± 0.70 ng/mL
AUC(0-t) ([2]; both sexes, iv, 0.5 mL/kg, single TRQI 0.5 mL/kg, Mean): 20.3 ng·h/mL
Cmax [2, 7]: 26.6 ng/mL
Tmax [2, 7]: 0.13 h
half-life [2, 7]: 0.89 h
AUC(0-t) ([2]; both sexes, po, 0.09 g/kg, single TRQCs 0.09 g/kg, Mean): 29.1 ng·h/mL
Cmax [2, 8]: 8.58 ng/mL
Tmax [2, 8]: 3.75 h
half-life [2, 8]: 1.45 h
AUC(0-t) ([2]; female, iv, 0.5 mL/kg, single TRQI 0.5 mL/kg, beagle No 4): 11.2 ng·h/mL
AUC(0-t) ([2]; female, iv, 0.5 mL/kg, single TRQI 0.5 mL/kg, beagle No 5): 15.2 ng·h/mL
AUC(0-t) ([2]; female, iv, 0.5 mL/kg, single TRQI 0.5 mL/kg, beagle No 6): 24.8 ng·h/mL
AUC(0-t) ([2]; female, po, 0.09 g/kg, single TRQCs 0.09 g/kg, beagle No 4): 13.9 ng·h/mL
AUC(0-t) ([2]; male, iv, 0.5 mL/kg, single TRQI 0.5 mL/kg, beagle No 1): 29.6 ng·h/mL
AUC(0-t) ([2]; male, iv, 0.5 mL/kg, single TRQI 0.5 mL/kg, beagle No 2): 17.8 ng·h/mL
AUC(0-t) ([2]; male, po, 0.09 g/kg, single TRQCs 0.09 g/kg, beagle No 1): 21.1 ng·h/mL
AUC(0-t) ([2]; male, po, 0.09 g/kg, single TRQCs 0.09 g/kg, beagle No 2): 48.1 ng·h/mL
AUC(0-t) ([2]; male, po, 0.09 g/kg, single TRQCs 0.09 g/kg, beagle No 3): 33.2 ng·h/mL
AUC(0-inf) ([3]; both sexes, iv, 0.5 mL/kg, TRQI 0.5 mL/kg for 7 days, Mean): 15.9 ng·h/mL
AUC(0-t) ([3]; both sexes, iv, 0.5 mL/kg, TRQI 0.5 mL/kg for 7 days, Mean, read-out: AUC0–24 h): 15.4 ng·h/mL
Cmax at 7 days [3, 9]: 20.3 ng/mL
Tmax at 7 days [3, 9]: 0.18 h
half-life at 7 days [3, 9]: 0.88 h
AUC(0-inf) ([3]; both sexes, po, 0.09 g/kg, TRQC 0.09 g/kg for 7 days, Mean): 12.3 ng·h/mL
AUC(0-t) ([3]; both sexes, po, 0.09 g/kg, TRQC 0.09 g/kg for 7 days, Mean, read-out: AUC0–24 h): 11.7 ng·h/mL
Cmax at 7 days [3, 10]: 3.9 ng/mL
Tmax at 7 days [3, 10]: 3.17 h
half-life at 7 days [3, 10]: 1.56 h
AUC(0-inf) ([3]; female, iv, 0.5 mL/kg, TRQI 0.5 mL/kg for 7 days, beagle No. 4): 19.3 ng·h/mL
AUC(0-t) ([3]; female, iv, 0.5 mL/kg, TRQI 0.5 mL/kg for 7 days, beagle No. 4, read-out: AUC0–24 h): 19.1 ng·h/mL
AUC(0-inf) ([3]; female, iv, 0.5 mL/kg, TRQI 0.5 mL/kg for 7 days, beagle No. 5): 24.4 ng·h/mL
AUC(0-t) ([3]; female, iv, 0.5 mL/kg, TRQI 0.5 mL/kg for 7 days, beagle No. 5, read-out: AUC0–24 h): 23.9 ng·h/mL
AUC(0-inf) ([3]; female, iv, 0.5 mL/kg, TRQI 0.5 mL/kg for 7 days, beagle No. 6): 30.7 ng·h/mL
AUC(0-t) ([3]; female, iv, 0.5 mL/kg, TRQI 0.5 mL/kg for 7 days, beagle No. 6, read-out: AUC0–24 h): 30 ng·h/mL
AUC(0-inf) ([3]; female, po, 0.09 g/kg, TRQC 0.09 g/kg for 7 days, beagle No. 4): 23.2 ng·h/mL
AUC(0-t) ([3]; female, po, 0.09 g/kg, TRQC 0.09 g/kg for 7 days, beagle No. 4, read-out: AUC0–24 h): 22.6 ng·h/mL
AUC(0-inf) ([3]; female, po, 0.09 g/kg, TRQC 0.09 g/kg for 7 days, beagle No. 5): 13.3 ng·h/mL
AUC(0-t) ([3]; female, po, 0.09 g/kg, TRQC 0.09 g/kg for 7 days, beagle No. 5, read-out: AUC0–24 h): 11.4 ng·h/mL
AUC(0-inf) ([3]; female, po, 0.09 g/kg, TRQC 0.09 g/kg for 7 days, beagle No. 6): 27 ng·h/mL
AUC(0-t) ([3]; female, po, 0.09 g/kg, TRQC 0.09 g/kg for 7 days, beagle No. 6, read-out: AUC0–24 h): 26.9 ng·h/mL
AUC(0-inf) ([3]; male, iv, 0.5 mL/kg, TRQI 0.5 mL/kg for 7 days, beagle No. 1): 6.07 ng·h/mL
AUC(0-t) ([3]; male, iv, 0.5 mL/kg, TRQI 0.5 mL/kg for 7 days, beagle No. 1, read-out: AUC0–24 h): 6.07 ng·h/mL
AUC(0-inf) ([3]; male, iv, 0.5 mL/kg, TRQI 0.5 mL/kg for 7 days, beagle No. 2): 5.59 ng·h/mL
AUC(0-t) ([3]; male, iv, 0.5 mL/kg, TRQI 0.5 mL/kg for 7 days, beagle No. 2, read-out: AUC0–24 h): 5.24 ng·h/mL
AUC(0-inf) ([3]; male, iv, 0.5 mL/kg, TRQI 0.5 mL/kg for 7 days, beagle No. 3): 9.2 ng·h/mL
AUC(0-t) ([3]; male, iv, 0.5 mL/kg, TRQI 0.5 mL/kg for 7 days, beagle No. 3, read-out: AUC0–24 h): 8.21 ng·h/mL
AUC(0-inf) ([3]; male, po, 0.09 g/kg, TRQC 0.09 g/kg for 7 days, beagle No. 1): 1.31 ng·h/mL
AUC(0-t) ([3]; male, po, 0.09 g/kg, TRQC 0.09 g/kg for 7 days, beagle No. 1, read-out: AUC0–24 h): 0.72 ng·h/mL
AUC(0-inf) ([3]; male, po, 0.09 g/kg, TRQC 0.09 g/kg for 7 days, beagle No. 2): 3.2 ng·h/mL
AUC(0-t) ([3]; male, po, 0.09 g/kg, TRQC 0.09 g/kg for 7 days, beagle No. 2, read-out: AUC0–24 h): 3.19 ng·h/mL
AUC(0-inf) ([3]; male, po, 0.09 g/kg, TRQC 0.09 g/kg for 7 days, beagle No. 3): 5.62 ng·h/mL
AUC(0-t) ([3]; male, po, 0.09 g/kg, TRQC 0.09 g/kg for 7 days, beagle No. 3, read-out: AUC0–24 h): 5.21 ng·h/mL
